Measurements as given in ChEMBL document CHEMBL1201862, “PubChem BioAssay data set” (2004).
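Grown in 96-well plates, cells were treated for 48 hours with each compound at five concentrations. Insufficient inhibition: endpoint recorded as highest concentration tested. At the GI50, growth is halved.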 Calls of active or inactive are those of the source. Cut-off read from the data, not from the text of the source: active = GI50 up to about 1.1 µM and inactive = higher.

How the values were obtained:
Assay in all cases: DTP human tumour cell line panel, 48 h
SF-295 = tested on: SF-295
UACC-257 = tested on: UACC-257
HOP-92 = tested on: HOP-92
LOX IMVI = tested on: LOX IMVI
K562 = tested on: K562
NCI-H23 = tested on: NCI-H23
M14 = tested on: M14
A549 = tested on: A549
IGROV-1 = tested on: IGROV-1
CAKI-1 = tested on: CAKI-1
OVCAR-3 = tested on: OVCAR-3
HL-60 = tested on: HL-60
EKVX = tested on: EKVX
SK-OV-3 = tested on: SK-OV-3
SF-268 = tested on: SF-268
U-251 = tested on: U-251
RPMI-8226 = tested on: RPMI-8226
OVCAR-4 = tested on: OVCAR-4
A498 = tested on: A498
NCI-H226 = tested on: NCI-H226

Row | SMILES | GI50 (SF-295) | GI50 (UACC-257) | GI50 (HOP-92) | GI50 (LOX IMVI) | GI50 (K562) | GI50 (NCI-H23) | GI50 (M14) | GI50 (A549) | GI50 (IGROV-1) | GI50 (CAKI-1) | GI50 (OVCAR-3) | GI50 (HL-60) | GI50 (EKVX) | GI50 (SK-OV-3) | GI50 (SF-268) | GI50 (U-251) | GI50 (RPMI-8226) | GI50 (OVCAR-4) | GI50 (A498) | GI50 (NCI-H226)
1 | C=CCNC(=O)N(CCC)CCCCC(NC(C)=O)C(=O)NCc1ccccc1 (stereo not given) | > 100 µM (inactive) | > 100 µM (inactive) | > 100 µM (inactive) | > 100 µM (inactive) | > 100 µM (inactive) | > 100 µM (inactive) | > 100 µM (inactive) | > 100 µM (inactive) | > 100 µM (inactive) | > 100 µM (inactive) | > 100 µM (inactive) | > 100 µM (inactive) | > 100 µM (inactive) | > 100 µM (inactive) | > 100 µM (inactive) | > 100 µM (inactive) | > 100 µM (inactive) | > 100 µM (inactive) | > 100 µM (inactive) | > 100 µM (inactive)
2 | COc1ccc(C(CC(=O)c2ccc(O)cc2)C(C(=O)c2ccc(O)cc2)C(c2ccc(OC)cc2)C2C(=O)NC(=S)NC2=O)cc1 (stereo not given) | 20 µM (inactive) | 17.5 µM (inactive) | 46.9 µM (inactive) | 17.9 µM (inactive) | 30.5 µM (inactive) |  | 20.8 µM (inactive) | 21.9 µM (inactive) | 15.5 µM (inactive) |  |  | 32.1 µM (inactive) |  |  | 15.7 µM (inactive) | 24.5 µM (inactive) | 22.6 µM (inactive) | 18.8 µM (inactive) | 38.9 µM (inactive) | 18.7 µM (inactive)
3 | CC(C)(C)C(=O)OCC1C(=O)OCC1C(=O)N1Cc2cc3ccccc3nc2C1 (stereo not given) | 14.3 µM (inactive) | 4.42 µM (inactive) | 1.5 µM (inactive) | 4.34 µM (inactive) | 0.728 µM (active) | 4.55 µM (inactive) | 2.8 µM (inactive) | 15.2 µM (inactive) | 15 µM (inactive) | 1.28 µM (inactive) | 4.07 µM (inactive) | 0.748 µM (active) | 7.41 µM (inactive) | 16.1 µM (inactive) | 8.91 µM (inactive) | 9.2 µM (inactive) | 1.31 µM (inactive) | 2.38 µM (inactive) | 13.2 µM (inactive) | 6.56 µM (inactive)
4 | CC(=O)[C@H]1CCC2[C@@H]3CC=C4C(O)C(OS(=O)(=O)O)CC[C@]4(C)C3CC[C@@]21C (stereo not given in full) | > 100 µM (inactive) |  | > 100 µM (inactive) | > 100 µM (inactive) | > 100 µM (inactive) | > 100 µM (inactive) |  | > 100 µM (inactive) | > 100 µM (inactive) | > 100 µM (inactive) | > 100 µM (inactive) | > 31.6 µM (inactive) | > 100 µM (inactive) | > 100 µM (inactive) | > 100 µM (inactive) | > 100 µM (inactive) | > 100 µM (inactive) | > 100 µM (inactive) | > 100 µM (inactive) | > 100 µM (inactive)
5 | CCCCC1(N=[N+]=[N-])C(=O)c2cccc3c2N(CCC3)C1=O (stereo not given) | > 100 µM (inactive) | > 100 µM (inactive) | > 100 µM (inactive) | > 100 µM (inactive) | > 100 µM (inactive) | > 100 µM (inactive) | > 100 µM (inactive) | > 100 µM (inactive) | > 100 µM (inactive) | > 100 µM (inactive) | 44.6 µM (inactive) |  | > 100 µM (inactive) | > 100 µM (inactive) | > 100 µM (inactive) | > 100 µM (inactive) | > 100 µM (inactive) | > 100 µM (inactive) | > 100 µM (inactive) | > 100 µM (inactive)
6 | COc1ccc(/C=N/n2c(C)nc3c(sc(=S)n3-c3ccccc3)c2=O)cc1 | 37.2 µM (inactive) | 62.7 µM (inactive) | 40.7 µM (inactive) |  | 25.6 µM (inactive) | > 100 µM (inactive) |  | > 100 µM (inactive) | > 100 µM (inactive) |  | 45.5 µM (inactive) | 21.6 µM (inactive) |  | > 100 µM (inactive) | 44.8 µM (inactive) | > 100 µM (inactive) | 27 µM (inactive) |  | 36 µM (inactive) | > 100 µM (inactive)
7 | COCCO [2-METHOXYETHANOL] | > 100 µM (inactive) | > 100 µM (inactive) | > 100 µM (inactive) | > 100 µM (inactive) | > 100 µM (inactive) | > 100 µM (inactive) |  | > 100 µM (inactive) | > 100 µM (inactive) | > 100 µM (inactive) | > 100 µM (inactive) | > 100 µM (inactive) | > 100 µM (inactive) | > 100 µM (inactive) | > 100 µM (inactive) | > 100 µM (inactive) | > 100 µM (inactive) | > 100 µM (inactive) | > 100 µM (inactive) | > 100 µM (inactive)
8 | NC(Cc1c[nH]c2ccccc12)C(=O)O (stereo not drawn) [DL-TRYPTOPHAN] | > 300 µM (inactive) | > 300 µM (inactive) | > 300 µM (inactive) | > 300 µM (inactive) | 204 µM (inactive) | > 300 µM (inactive) |  | > 300 µM (inactive) | > 300 µM (inactive) | > 300 µM (inactive) | > 300 µM (inactive) | > 300 µM (inactive) | > 300 µM (inactive) | > 300 µM (inactive) | > 300 µM (inactive) | > 300 µM (inactive) | > 300 µM (inactive) | > 300 µM (inactive) | > 13.9 µM (inactive) | 30 µM (inactive)
